Patent US7495027B2, “3-aryl-4-hydroxyfuranone compounds and the human and animal health use thereof” (Wyeth, priority 2003, dated 2009)
Converted amounts (≈) assume the structure as drawn. Where two headings read alike, the source gives them in different places.

Columns and labels:
[1] = target: E. coli Enopyruvyl-UPD-N-acetylglucosamine reductase, Mur B (Escherichia coli, UniProt P08373); experiment: biochemical; details: (E) E. coli enzyme; for IC50: read-out: MurB IC50 (converted)
[2] = target: E. coli Uridine-diphosphate-N-acetvimuramoyl: L-alanine lipase, MurC (Escherichia coli, UniProt P17952); experiment: Inhibitory activity against MurC (E. coli); format: biochemical; details: (E) E. coli enzyme; for IC50: read-out: MurC IC50 (converted)
[3] = target: E. coli Uridine-diphosphate-N-acetylmuramoyl-L-alanine: D-glutamate liease, MurD (Escherichia coli, UniProt P14900); experiment: biochemical; details: (E) E. coli enzyme
Description: (§1) S. aureus and E. coli Uridine-diphosphate-N-acetylmuramoyl-L-alanine: D-glutamate liease, MurD
The buffer is prepared from aqueous reagents with the following final concentrations: 83 mM Tris/HCl (pH 8.0), 50 mM MgCl2, and 2 mM ATP.
(§2) Preparation of Enzyme Solution:
(§3) Preparation of Test Compound Solutions:
(§4) All test solutions are prepared in DMSO as 10 mg/mL, then diluted with 50 mM Tris/HCl (pH 8.5) to 100 μg/mL.
(§5) Preparation of Stop Solution:
(§6) In this evaluation, the inhibitory activity of a test compound against MurD, the enzyme which catalyzes the fourth step of bacterial cell wall biosynthesis is determined.

Streptococci = experiment: Minimum inhibitory concentration, microdilution broth method, streptococci; format: cell-based; details: Mueller-Hinton broth with 5% horse blood, 18-22 hours at 35° C.; for MIC: S. pneumo GC 1894
Procedure, shortened: (§7)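 MIC by microdilution, NCCLS M7-A5. Media: MH broth (staph, enterococci); MH + 5% lysed horse blood (strep). Strains incl. methicillin-, penicillin- and/or vancomycin-resistant clinical isolates.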

[4] = target: T1, S. aureus Uridine-diphosphate-N-acetylmuramoyl-L-alanine: D-glutamate liease, MurD (Staphylococcus aureus, UniProt Q2FZ92); experiment: biochemical; details: (S) S. aureus enzyme
T1 sequence (Q2FZ92 1-449): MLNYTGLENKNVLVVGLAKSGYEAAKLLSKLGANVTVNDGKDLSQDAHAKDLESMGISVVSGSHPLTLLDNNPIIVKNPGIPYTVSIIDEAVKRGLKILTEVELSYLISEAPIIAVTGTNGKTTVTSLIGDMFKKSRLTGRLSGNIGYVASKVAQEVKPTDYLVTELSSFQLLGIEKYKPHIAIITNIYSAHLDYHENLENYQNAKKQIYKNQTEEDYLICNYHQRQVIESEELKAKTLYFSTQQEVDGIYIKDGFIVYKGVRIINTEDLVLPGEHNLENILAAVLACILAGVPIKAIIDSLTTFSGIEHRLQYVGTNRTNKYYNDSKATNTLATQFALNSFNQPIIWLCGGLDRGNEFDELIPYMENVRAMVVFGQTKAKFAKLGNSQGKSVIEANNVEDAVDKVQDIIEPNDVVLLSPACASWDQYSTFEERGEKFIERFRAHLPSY
Description: as §1, §2, §3, §4, §5, §6

enterococci = experiment: Minimum inhibitory concentration, microdilution broth method, enterococci; format: cell-based; details: Mueller-Hinton broth, 18-22 hours at 35° C.; for MIC: Enterococcus faecalis
Procedure, shortened: as §7

staphylococci = experiment: Minimum inhibitory concentration, microdilution broth method, staphylococci; format: cell-based; details: Mueller-Hinton broth, 18-22 hours at 35° C.; for MIC: Staphylococcus aureus
Procedure, shortened: as §7

[5] = target: E. coli UDP-N-acetylglucosamine enolpyruvoyl transferase, MurA (Escherichia coli, UniProt P0A749); experiment: biochemical; details: (E) E. coli enzyme
Description: Evaluation of the Inhibitory Activity of Test Compounds Against Enzymes which Catalyze Bacterial Cell Wall Biosynthesis
S. aureus and E. coli UDP-N-acetylglucosamine enolpyruvoyl transferase, MurA
as §2
The enzyme solution is prepared by admixing the following: 50 mM Tris/HCl pH 8.0, […] 1 M Tris, 5 mM DTT, […] 1 M DTT, 20% Glycerol 4 ml 50% Glycerol, add water to 10 ml.
as §5
A procedure similar to that described by C. […] Experiments are performed by adding a solution of test compound (in a mixture of dimethylsulfoxide and water) and an enzyme solution to a well. After a pre-incubation period of 10 mintues at 37° C., Tris/BME buffer and assay buffer are added. A start point optical density (OD0) reading is taken at 340 nm immediately following the addition of assay buffer. After incubation for 1 hr at 37° C., the stop solution is added and the color is allowed to develop for 30 minutes.

[6] = target: T2, S. aureus Uridine-diphosphate-N-acetvimuramoyl: L-alanine lipase, MurC (Staphylococcus aureus, UniProt Q2FXJ0); experiment: biochemical; details: (S) S. aureus enzyme; read-out: MurC IC50 (converted)
T2 sequence (Q2FXJ0 1-437): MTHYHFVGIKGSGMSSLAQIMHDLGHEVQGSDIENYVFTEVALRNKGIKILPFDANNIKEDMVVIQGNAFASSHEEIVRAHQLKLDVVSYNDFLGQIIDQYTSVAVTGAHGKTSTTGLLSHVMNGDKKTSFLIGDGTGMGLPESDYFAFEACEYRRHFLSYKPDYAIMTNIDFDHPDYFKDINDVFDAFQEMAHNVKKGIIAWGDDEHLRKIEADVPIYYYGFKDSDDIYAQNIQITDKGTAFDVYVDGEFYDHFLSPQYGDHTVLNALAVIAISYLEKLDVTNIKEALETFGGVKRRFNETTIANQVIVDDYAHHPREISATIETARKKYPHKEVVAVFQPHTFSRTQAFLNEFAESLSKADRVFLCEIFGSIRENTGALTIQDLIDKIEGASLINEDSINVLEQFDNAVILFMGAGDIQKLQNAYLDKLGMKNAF
Description: S. aureus and E. coli Uridine-diphosphate-N-acetvimuramoyl: L-alanine lipase, MurC
as §2
A 1 mg/mL stock solution of MurC is prepared in a buffer consisting of 20 mM Tris/HCl (pH 8.5) with 2.5 μM BME. The stock solution is further diluted with the buffer to give a final enzyme concentration of 100 μg/mL for the E. coli stock solution and 70 μg/mL for the S. aureus stock solution.
as §3, §4, §5
The stop solution is prepared by stirring 1 part 4.2% ammonium molydbate in 4N HCl with 2 parts 0.045% malachite green for 30 min.
In this evaluation, the inhibitory activity of a test compound against MurC, the enzyme which catalyzes the third step of bacterial cell wall bioxynthesis is determined. Experiments are performed by adding 2.5 μl buffer, 2.5 μl 0.5M NH4SO2, 5 μl 2 μM L-Ala, 5 μl enzyme solution and 6.5 μl test compound solution to each well in a 96-well microplate. After a pre-incubation period of 10 mins. at 23° C., 3.75 μl of a 0.75 μM solution of UDP-MurNac is added to each well. Following an incubation period of 10 mins. at 37° C., 210 μl stop solution and 50 μl of a 34% w/v sodium citrate solution are added and color is allowed to develop for 10 mins. at 23° C. (Lanzetta et al., Analytical Biochemistry, 1979, 95) Optical density readings are taken at 660 nm using a Molecular Devices Spectra Max 250 with Soft Max software. Controls are performed using the same procedure and omitting the addition of UDP-MurNac. […]
Using these values the IC50 is determined by linear regression analysis.

[7] = E. faecalis GC 2242, read-out: MIC E. faecalis GC 2242
[8] = E. faecalis GC 4555, read-out: MIC E. faecalis GC 4555
[9] = S. aureus GC 1131, read-out: MIC S. aureus GC 1131
[10] = S. aureus GC 4543, read-out: MIC S. aureus GC 4543

E. coli Uridine-diphosphate-N-acetvimuramoyl: L-alanine lipase, MurC, sequence (P17952 whole entry): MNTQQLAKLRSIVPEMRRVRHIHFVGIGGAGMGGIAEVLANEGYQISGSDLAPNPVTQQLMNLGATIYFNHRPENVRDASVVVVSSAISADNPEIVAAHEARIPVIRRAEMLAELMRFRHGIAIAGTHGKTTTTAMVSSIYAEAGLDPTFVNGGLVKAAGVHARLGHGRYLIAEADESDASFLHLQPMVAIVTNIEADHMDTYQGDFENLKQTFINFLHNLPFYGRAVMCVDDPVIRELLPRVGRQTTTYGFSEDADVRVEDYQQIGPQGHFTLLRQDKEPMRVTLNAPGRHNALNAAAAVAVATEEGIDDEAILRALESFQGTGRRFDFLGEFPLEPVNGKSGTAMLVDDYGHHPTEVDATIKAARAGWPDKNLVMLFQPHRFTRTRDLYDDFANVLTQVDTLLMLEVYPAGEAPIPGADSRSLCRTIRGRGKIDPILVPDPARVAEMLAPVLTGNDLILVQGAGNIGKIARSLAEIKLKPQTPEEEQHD
E. coli Uridine-diphosphate-N-acetylmuramoyl-L-alanine: D-glutamate liease, MurD, sequence (P14900 whole entry): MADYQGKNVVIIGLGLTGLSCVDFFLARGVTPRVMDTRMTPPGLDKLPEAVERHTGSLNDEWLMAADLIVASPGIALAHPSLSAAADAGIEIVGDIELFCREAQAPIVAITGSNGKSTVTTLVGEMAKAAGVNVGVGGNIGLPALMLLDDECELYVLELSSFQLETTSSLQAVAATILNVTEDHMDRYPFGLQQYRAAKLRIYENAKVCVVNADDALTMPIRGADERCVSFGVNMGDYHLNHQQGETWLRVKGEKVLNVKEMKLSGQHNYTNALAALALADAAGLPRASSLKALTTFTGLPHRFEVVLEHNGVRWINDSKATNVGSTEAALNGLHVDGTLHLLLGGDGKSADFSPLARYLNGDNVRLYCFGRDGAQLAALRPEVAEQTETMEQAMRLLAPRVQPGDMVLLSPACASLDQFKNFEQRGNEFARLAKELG
E. coli UDP-N-acetylglucosamine enolpyruvoyl transferase, MurA, sequence (P0A749 whole entry): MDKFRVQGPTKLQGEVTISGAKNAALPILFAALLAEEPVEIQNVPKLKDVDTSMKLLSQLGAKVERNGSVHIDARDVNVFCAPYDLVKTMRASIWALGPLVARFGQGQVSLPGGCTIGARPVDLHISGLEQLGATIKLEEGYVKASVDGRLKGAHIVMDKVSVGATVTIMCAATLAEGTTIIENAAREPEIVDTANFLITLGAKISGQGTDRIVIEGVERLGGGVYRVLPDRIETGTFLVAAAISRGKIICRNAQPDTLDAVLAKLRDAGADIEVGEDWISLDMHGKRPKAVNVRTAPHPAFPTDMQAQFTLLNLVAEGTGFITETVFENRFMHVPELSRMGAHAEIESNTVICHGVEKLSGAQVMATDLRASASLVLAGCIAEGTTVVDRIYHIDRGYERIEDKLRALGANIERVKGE
E. coli Enopyruvyl-UPD-N-acetylglucosamine reductase, Mur B, sequence (P08373 whole entry): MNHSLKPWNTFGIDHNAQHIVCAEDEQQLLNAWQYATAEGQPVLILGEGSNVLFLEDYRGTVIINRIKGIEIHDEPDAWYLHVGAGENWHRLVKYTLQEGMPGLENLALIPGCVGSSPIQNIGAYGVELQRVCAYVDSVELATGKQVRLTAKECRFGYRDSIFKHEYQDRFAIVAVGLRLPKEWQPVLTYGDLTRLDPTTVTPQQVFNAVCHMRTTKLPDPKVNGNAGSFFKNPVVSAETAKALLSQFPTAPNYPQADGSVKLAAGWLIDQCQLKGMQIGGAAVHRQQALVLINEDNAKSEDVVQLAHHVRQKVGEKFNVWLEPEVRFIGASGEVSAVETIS

Compound | IC50 [1] | IC50 [2] | IC50 [3] | MIC (Streptococci) | IC50 [4] | MIC (enterococci; [7]) | MIC (enterococci; [8]) | MIC (staphylococci; [9]) | MIC (staphylococci; [10]) | IC50 [5] | other results
O=C1O/C(=C\c2ccc(-c3ccccc3C(F)(F)F)cc2)C(O)=C1c1ccccc1C(F)(F)F [Example 61] | > 52.5 µM | 29.4 µM | > 52.5 µM | 8 µg/mL (≈ 16.8 µM) | 39.9 µM | 16 µg/mL (≈ 33.6 µM) | 32 µg/mL (≈ 67.2 µM) | 16 µg/mL (≈ 33.6 µM) | 16 µg/mL (≈ 33.6 µM) | > 52.5 µM | 
O=C1O/C(=C\c2ccc(-c3ccccc3F)cc2)C(O)=C1c1ccccc1F [Example 58] | > 66.4 µM | 37.2 µM | > 66.4 µM | < 0.125 µg/mL | > 66.4 µM | 16 µg/mL (≈ 42.5 µM) | > 128 µg/mL | 8 µg/mL (≈ 21.3 µM) | 16 µg/mL (≈ 42.5 µM) | > 66.4 µM | 
Cc1ccccc1C1=C(O)/C(=C/c2ccc(-c3ccccc3C)cc2)OC1=O [Example 60] | > 67.9 µM | 38 µM | > 67.9 µM | 8 µg/mL (≈ 21.7 µM) | 59.7 µM | 8 µg/mL (≈ 21.7 µM) | 32 µg/mL (≈ 86.9 µM) | 16 µg/mL (≈ 43.4 µM) | 16 µg/mL (≈ 43.4 µM) | > 67.9 µM | 
Cc1ccc(C2=C(O)/C(=C/c3ccc(-c4ccc(C)cc4)cc3)OC2=O)cc1 [Example 57] | 16.3 µM | 54.3 µM | 46.1 µM | < 0.125 µg/mL | 51.6 µM | 2 µg/mL (≈ 5.43 µM) | 8 µg/mL (≈ 21.7 µM) | 32 µg/mL (≈ 86.9 µM) | 4 µg/mL (≈ 10.9 µM) | > 67.9 µM | 
N#Cc1cccc(-c2ccc(/C=C3\OC(=O)C(c4ccccc4C#N)=C3O)cc2)c1 [Example 59] | 15.4 µM | 15.4 µM | 12.8 µM | 32 µg/mL (≈ 82 µM) | 12.8 µM | 8 µg/mL (≈ 20.5 µM) | 8 µg/mL (≈ 20.5 µM) | > 128 µg/mL | > 128 µg/mL | 43.5 µM | 
O=C1O/C(=C\c2cccc3ccccc23)C(O)=C1c1ccc(Cl)cc1 [Example 4, 3-(4-Chlorophenyl)-4-hydroxy-5-[(Z)-1-naphthylmethylidene]-furan-2-(5H)-one] |  |  |  | 1 µg/mL (≈ 2.87 µM) | 68.8 µM | 8 µg/mL (≈ 22.9 µM) | 32 µg/mL (≈ 91.7 µM) | 16 µg/mL (≈ 45.9 µM) | 16 µg/mL (≈ 45.9 µM) |  | IC50 [6]: 45.9 µM; MurC IC50 [2]: 7 µg/mL
N#Cc1ccc(C2=C(O)/C(=C/c3ccc(-c4ccc(C#N)cc4)cc3)OC2=O)cc1 [R=H, R1=4-CN—C6H4, R2=4-(4′-CN-biphenyl)] |  |  |  |  |  |  |  |  |  |  | MurB IC50 [1]: 15 (E) μg/mL; MurC IC50 [2]: 5 (E) μg/mL; MurD IC50 [3]: 5 µg/mL; MIC S. pneumo GC 1894 (Streptococci): 64 µg/mL (≈ 164 µM); MurD IC50 [4]: > 25 µg/mL; MIC E. faecalis GC 2242 (enterococci; E. faecalis GC 2242): 32 µg/mL (≈ 82 µM); MIC E. faecalis GC 4555 (enterococci; E. faecalis GC 4555): 64 µg/mL (≈ 164 µM); MIC S. aureus GC 1131 (staphylococci; S. aureus GC 1131): >128 µg/mL; MIC S. aureus GC 4543 (staphylococci; S. aureus GC 4543): >128 µg/mL; MurA IC50 [5]: 7 (E) μg/mL
O=C1O/C(=C\c2cc(C(F)(F)F)ccc2F)C(O)=C1c1ccc(-c2ccccc2)c(F)c1 [Example 119] |  |  |  | 0.5 µg/mL (≈ 1.13 µM) |  | 2 µg/mL (≈ 4.5 µM) | 2 µg/mL (≈ 4.5 µM) | 2 µg/mL (≈ 4.5 µM) | 2 µg/mL (≈ 4.5 µM) |  | MurB IC50 [1]: 1 (E) μg/mL; MurC IC50 [2]: 2 (E) μg/mL; MurD IC50 [3]: 6 (E) μg/mL; MurA IC50 [5]: 1 (E) μg/mL
O=C1O/C(=C\c2cc(C(F)(F)F)ccc2Cl)C(O)=C1c1ccc(-c2ccccc2)cc1 [Example 125] | 11.3 µM | 2.26 µM | 45.2 µM | 0.5 µg/mL (≈ 1.13 µM) |  | 4 µg/mL (≈ 9.03 µM) | 8 µg/mL (≈ 18.1 µM) | 2 µg/mL (≈ 4.52 µM) | 2 µg/mL (≈ 4.52 µM) | 9.03 µM | 
CC(C)(C)c1ccc(-c2ccc(C3=C(O)/C(=C/c4cc(C(F)(F)F)ccc4F)OC3=O)cc2)cc1 [Example 120] | 10.4 µM | 47.7 µM | 33.2 µM | 0.5 µg/mL (≈ 1.04 µM) |  | 4 µg/mL (≈ 8.29 µM) | 8 µg/mL (≈ 16.6 µM) | 16 µg/mL (≈ 33.2 µM) | 16 µg/mL (≈ 33.2 µM) | 8.29 µM | 
O=C1O/C(=C\c2cc(F)cc(C(F)(F)F)c2)C(O)=C1c1ccc(-c2ccccc2)c(F)c1 [Example 110] | 11.3 µM | 20.3 µM | 42.8 µM | 0.25 µg/mL (≈ 0.563 µM) |  | 1 µg/mL (≈ 2.25 µM) | 4 µg/mL (≈ 9 µM) | 2 µg/mL (≈ 4.5 µM) | 2 µg/mL (≈ 4.5 µM) | 15.8 µM | 
